This note sets out measurements from patent US6359138B1, “4-hydroxy-piperidine derivatives” (Hoffmann-La Roche Inc., priority 1996, dated 2002).

Data set [1] concerns the target T1, NR1C + NR2A NMDA receptor (Rattus norvegicus, UniProt P35439+Q00959).
T1 construct: expressed in transfected cells; host or cells: Xenopus laevis oocytes (nuclear injection of pBC/CMV plasmids)
The data set is described as follows: Electrophysiology on recombinant NMDA receptors, NR1C + NR2A in Xenopus oocytes. The note with it: 10 μM compound; Xenopus laevis oocytes, voltage clamp −80 mV, 2.7 μM Glu plus 0.9 μM Gly; mean of 4-6 oocytes. It counts as cell-based. An excerpt:
(§1) Electrophysiology on Recombinant NMDA Receptors
(§2) cDNA clones coding for the subunits NR1C and NR2A of the NMDA receptor (see Hollmann and Heinemann, 1994, Annu. Rev. Neurosci. 17:31 for nomenclature of NMDA receptor subunits) were isolated from a rat brain λgt11 cDNA library as published elsewhere (Sigel et al., 1994, J. Biol. Chem. 269:8204). The clone for the subunit NR2B of the rat brain NMDA receptor was obtained from S. Nakanishi (Kyoto, Japan). The cDNAs encoding rat NR1C, NR2A and NR2B were subcloned into the expression vector pBC/CMV (Bertocci et al., 1991, Proc. Natl. Acad. Sci. U.S.A. 88:1416), placing transcription of the cDNA under control of the human cytomegalovirus promoter. CsCl-purified expression plasmids were mixed in a 1:3 ratio of NR1C:NR2A or NR1C:NR2B in injection buffer (88 mM NaCl, 1 mM KCl, 15 mM HEPES, at pH 7.0). Oocytes of South African frogs (Xenopus laevis) were used for expressing either a combination of the NR1C and NR2A subunits or the NR1C and NR2B subunits. 12 to 120 pg of a 1:3 (NR1C:NR2B) mixture of the respective cDNA species were injected into the nucleus of every oocyte. On the following two days the ion current through the NMDA receptor channels was measured in voltage clamp experiments for the methods of cDNA expression in oocytes and voltage-clamping (see, e.g., Bertrand et al., 1991, Methods in Neurosciences 4:174). The membrane potential was clamped to −80 mV and the receptors were activated by applying a modified Ringer,s solution containing the NMDA-receptor agonists L-glutamate (Glu) and glycine (Gly). Different agonist concentrations were chosen for either subunit combination to account for the different agonist sensitivities of the two types of receptors (2.7 μM Glu plus 0.9 μM Gly for NR1C+NR2A and 1.3 μM Glu plus 0.07 μM Gly for NR1C+NR2B). The agonists were applied for 15 s intervals once every 2.5 min by rapid superfusion of the oocyte with agonist containing solution and the amplitude of the agonist-evoked current was measured immediately before the end of each application. After a series of initial control applications the antagonist to be tested was added to both, the basal Ringer,s and the agonist containing solution. The antagonist concentration applied to oocytes expressing the NR2A subunit was 10 μmol/l, whereas 0.1 μtmol/ were applied to the NR2B expressing oocytes. Four to six oocytes were tested for every compound and NMDA receptor subtype. Oocytes were exposed to the compounds for 5 to 30 min depending on the time needed for reaching an equilibrium block of the NMDA receptor current. For every oocyte the decrease of the current amplitude was expressed as a percentage of the control current measured before application of the compound. Figures in the table are arithmetic mean values of these percentage values.

The target in data set [2] is T2, NR1C + NR2B NMDA receptor (Rattus norvegicus, UniProt P35439+Q00960).
T2 construct: expressed in transfected cells; host or cells: Xenopus laevis oocytes (nuclear injection of pBC/CMV plasmids)
The data set is described as follows: Electrophysiology on recombinant NMDA receptors, NR1C + NR2B in Xenopus oocytes. It counts as cell-based. The note with it: 0.1 μM compound; Xenopus laevis oocytes, voltage clamp −80 mV, 1.3 μM Glu plus 0.07 μM Gly; mean of 4-6 oocytes.
Excerpt: as §1
as §2, with “Figures in the table are arithmetic mean values of these percentage values.” left out

For data set [3], the target named is T3, NMDA receptor (3H-Ro 25-6981 binding, rat brain membranes) (Rattus norvegicus, UniProt P35439+Q00960).
T3 construct: Membranes were prepared by homogenization of the whole brain minus cerebellum and medulla oblongata; from tissue; host or cells: rat whole brain minus cerebellum and medulla oblongata, membranes
The data set is described as follows: 3H-Ro 25-6981 binding. The conditions noted are these: 5 nM 3H-Ro 25-6981, 2 hours at 4° C. As for the experimental part: 3H-Ro 25-6981 Binding (Ro 25-6981 is [R-(R*,S*)]-a-(4-Hydroxy-phenyl)-b-methyl-4-(phenyl-methyl)-1-piperidine Propanol)
Male Füillinsdorf albino rats weighing between 150-200 g were used. Membranes were prepared by homogenization of the whole brain minus cerebellum and medulla oblongata with a Polytron (10.000 rpm, 30 seconds), in 25 volumes of a cold Tris-HCl 50 mM, EDTA 10 mM, pH 7.1 buffer. The homogenate was centrifuged at 48.000 g for 10 minutes at 4° C. The pellet was resuspended using the Polytron in the same volume of buffer and the homogenate was incubated at 37° C. for 10 minutes. After centrifugation the pellet was homogenized in the same buffer and frozen at −80° C. for at least 16 hours but not more than 10 days. For the binding assay the homogenate was thawed at 37° C., centrifuged and the pellet was washed three times as above in a Tris-HCl 5 mM, pH 7.4 cold buffer. The final pellet was resuspended in the same buffer and used at a final concentration of 200 μg of protein/ml. 3H-Ro 25-6981 binding experiments were performed using a Tris-HCl 50 mM, pH 7.4 buffer. For displacement experiments 5 nM of 3H-Ro 25-6981 were used and non specific binding was measured using 10 μM of tetrahydroisoquinoline and usually it accounts for 10% of the total. The incubation time was 2 hours at 4° C. and the assay was stopped by filtration on Whatmann GF/B glass fiber filters (Unifilter-96, Packard, Zütrich, Switzerland). The filters were washed 5 times with cold buffer. The radioactivity on the filter was counted on a Packard Top-count microplate scintillation counter after addition of […] of microscint 40 (Canberra Packard S. A., Zürich, Switzerland).
The effects of compounds were measured using a minimum of 8 concentrations and repeated at least once. The pooled normalized values were analyzed using a non-linear regression calculation program which provide IC50 with their relative upper and lower 95% confidence limits (RS1, BBN, USA).

The target of data set [4] is 3H-Prazosine binding (rat brain membranes). Put plainly: 3H-Prazosine binding. The note with it: 0.2 nM 3H-Prazosine, 30 minutes at room temperature. As for the experimental part:
Male Füllinsdorf albino rats weighing between 150-200 g were used. Membranes were prepared by homogenization of the whole brain minus cerebellum and medulla oblongata with a Plytron (10.000 rpm, 30 seconds), in 25 volumes of a cold Tris-HCl 50 mM, EDTA 10 mM, pH 7.1 buffer. The homogenate was centrifuged at 48.000 g for 10 minutes at 4° C. The pellet was resuspended using the Polytron in the same volume of buffer and the homogenate was incubated at 37° C. for 10 minutes. After centrifugation the pellet was homogenized in the same buffer and frozen at −80° C. for at least 16 hours but not more than 10 days. For the binding assay the homogenate was thawed at 37° C., centrifuged and the pellet was washed three times as above in a Tris-HCl 5 mM, pH 7.4 cold buffer. The final pellet was resuspended in the same buffer and used at a final concentration of 200 μg of protein/ml.
3H-Prazosine binding experiments were performed using a Tris-HCl 50 mM, pH 7.4 buffer. For displacement experiments 0.2 nM of 3H-Prazosine were used and non specific binding was measured using 100 μM of Chlorpromazine. […] The radioactivity on the filter was counted on a Packard Top-count microplate scintillation counter after addition of […] of microscint 40 (Canberra Packard S. A., Zürich, Switzerland). The effects of compounds were measured using a minimum of 8 concentrations and repeated at least once. […]

Where a name gives a salt, the structure may show the parent alone. Marks after values point to notes of the source that are not given here.

T1 sequence (Q00959 23-1464, other chains not shown): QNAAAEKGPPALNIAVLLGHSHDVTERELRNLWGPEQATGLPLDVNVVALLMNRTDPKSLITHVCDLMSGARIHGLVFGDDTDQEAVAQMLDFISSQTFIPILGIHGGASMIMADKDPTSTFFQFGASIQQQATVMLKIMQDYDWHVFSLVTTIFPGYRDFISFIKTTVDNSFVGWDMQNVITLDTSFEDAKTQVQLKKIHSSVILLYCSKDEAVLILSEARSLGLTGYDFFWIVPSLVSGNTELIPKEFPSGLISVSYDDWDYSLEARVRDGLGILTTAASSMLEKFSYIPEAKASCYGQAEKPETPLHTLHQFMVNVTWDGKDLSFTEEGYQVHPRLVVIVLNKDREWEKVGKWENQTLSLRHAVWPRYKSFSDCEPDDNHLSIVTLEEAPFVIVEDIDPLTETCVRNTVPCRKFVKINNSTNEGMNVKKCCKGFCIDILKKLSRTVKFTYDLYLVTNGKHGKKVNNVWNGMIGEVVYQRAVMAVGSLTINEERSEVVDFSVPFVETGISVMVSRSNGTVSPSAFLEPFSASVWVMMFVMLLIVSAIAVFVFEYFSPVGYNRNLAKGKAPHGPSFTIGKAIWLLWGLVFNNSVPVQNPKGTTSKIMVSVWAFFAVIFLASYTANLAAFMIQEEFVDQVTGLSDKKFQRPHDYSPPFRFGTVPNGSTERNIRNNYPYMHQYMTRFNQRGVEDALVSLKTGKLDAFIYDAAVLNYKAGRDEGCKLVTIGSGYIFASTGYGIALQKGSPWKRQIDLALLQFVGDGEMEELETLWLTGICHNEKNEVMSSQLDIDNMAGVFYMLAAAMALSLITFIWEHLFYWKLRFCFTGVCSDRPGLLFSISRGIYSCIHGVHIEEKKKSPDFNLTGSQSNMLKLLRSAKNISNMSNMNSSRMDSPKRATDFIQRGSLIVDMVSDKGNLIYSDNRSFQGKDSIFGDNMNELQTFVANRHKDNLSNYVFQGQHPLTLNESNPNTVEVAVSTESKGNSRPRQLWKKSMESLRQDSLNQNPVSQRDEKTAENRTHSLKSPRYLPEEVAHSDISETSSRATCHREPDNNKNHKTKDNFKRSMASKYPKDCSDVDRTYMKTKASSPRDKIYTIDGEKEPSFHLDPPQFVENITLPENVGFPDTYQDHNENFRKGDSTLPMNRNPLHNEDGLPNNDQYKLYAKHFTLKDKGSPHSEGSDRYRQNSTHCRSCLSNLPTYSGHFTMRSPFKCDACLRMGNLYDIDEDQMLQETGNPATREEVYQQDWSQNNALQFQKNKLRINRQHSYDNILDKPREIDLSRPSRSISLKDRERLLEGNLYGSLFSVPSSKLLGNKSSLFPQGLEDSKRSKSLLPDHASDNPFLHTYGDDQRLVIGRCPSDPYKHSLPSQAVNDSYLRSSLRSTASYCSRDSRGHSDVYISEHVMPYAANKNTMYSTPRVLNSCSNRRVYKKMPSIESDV
T3 sequence (Q00960 27-1482, other chains not shown): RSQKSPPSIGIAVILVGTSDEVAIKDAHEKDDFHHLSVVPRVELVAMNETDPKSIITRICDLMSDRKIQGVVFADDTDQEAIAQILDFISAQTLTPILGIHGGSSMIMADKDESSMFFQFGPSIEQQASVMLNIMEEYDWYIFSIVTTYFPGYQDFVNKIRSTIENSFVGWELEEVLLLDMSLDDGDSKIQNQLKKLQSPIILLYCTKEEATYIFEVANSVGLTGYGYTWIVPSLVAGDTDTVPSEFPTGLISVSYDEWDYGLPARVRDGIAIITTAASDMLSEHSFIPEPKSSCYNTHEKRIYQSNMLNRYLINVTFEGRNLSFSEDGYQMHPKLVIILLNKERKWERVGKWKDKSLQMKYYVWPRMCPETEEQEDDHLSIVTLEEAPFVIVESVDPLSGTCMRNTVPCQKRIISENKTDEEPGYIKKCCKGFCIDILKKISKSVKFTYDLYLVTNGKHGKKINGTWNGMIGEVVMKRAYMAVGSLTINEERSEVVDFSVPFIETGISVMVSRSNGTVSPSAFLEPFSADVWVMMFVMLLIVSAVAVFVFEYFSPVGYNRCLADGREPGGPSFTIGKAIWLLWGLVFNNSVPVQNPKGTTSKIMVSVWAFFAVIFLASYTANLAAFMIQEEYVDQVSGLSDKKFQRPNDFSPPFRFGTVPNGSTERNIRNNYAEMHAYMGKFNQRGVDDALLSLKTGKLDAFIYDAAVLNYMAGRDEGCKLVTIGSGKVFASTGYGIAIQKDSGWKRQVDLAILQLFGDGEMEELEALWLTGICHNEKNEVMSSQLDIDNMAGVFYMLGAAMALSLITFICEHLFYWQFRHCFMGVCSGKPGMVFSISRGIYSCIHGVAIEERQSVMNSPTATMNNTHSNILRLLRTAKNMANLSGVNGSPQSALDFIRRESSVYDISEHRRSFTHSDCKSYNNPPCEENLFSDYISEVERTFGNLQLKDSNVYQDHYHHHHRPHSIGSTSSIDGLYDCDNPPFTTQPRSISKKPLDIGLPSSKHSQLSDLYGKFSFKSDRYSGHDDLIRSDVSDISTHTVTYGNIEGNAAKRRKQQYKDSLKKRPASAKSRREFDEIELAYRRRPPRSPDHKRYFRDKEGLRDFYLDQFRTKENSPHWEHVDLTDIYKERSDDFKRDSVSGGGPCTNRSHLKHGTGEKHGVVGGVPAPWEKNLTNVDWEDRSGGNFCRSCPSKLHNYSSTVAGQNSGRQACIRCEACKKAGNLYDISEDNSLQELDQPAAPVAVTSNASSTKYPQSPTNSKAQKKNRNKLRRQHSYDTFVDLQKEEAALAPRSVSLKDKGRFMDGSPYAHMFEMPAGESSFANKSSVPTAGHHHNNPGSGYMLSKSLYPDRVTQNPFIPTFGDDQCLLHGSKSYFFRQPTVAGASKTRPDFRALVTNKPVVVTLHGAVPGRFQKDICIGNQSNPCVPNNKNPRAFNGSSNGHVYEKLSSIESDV
T2 sequence (Q00960 27-1482, other chains not shown): as above

As a reminder, the melting point is the temperature of the solid-liquid transition. The compound `Cc1ccc(CC2(O)CCN(Cc3cc4ccc(O)cc4o3)CC2)cc1.Cl` gave a melting point of 214 °C. The same measure, in the same setting: the figure for `Cc1ccc(CC2(O)CCN(CC3Cc4ccc(O)cc4C3)CC2)cc1.Cl` (racemic) is 88 to 90 °C. `Cc1ccc(CC2(O)CCN(CC3Cc4ccc(O)cc4O3)CC2)cc1.Cl` (racemic) had a melting point of 203 to 205 °C. For the compound `CC(=O)Nc1ccc2c(c1)CCC(CN1CCC(O)(Cc3ccccc3)CC1)C2=O.Cl` (racemic), the melting point was in the range of 123 to 126 °C.

In the case of `CCc1ccc(CC2(O)CCN(CC3Cc4cc(O)ccc4O3)CC2)cc1.Cl` (racemic) [Example 7, (RS)-4-(4-ethyl-benzyl)-1-(5-hydroxy-2,3-dihydro-benzofuran-2-ylmethyl)-piperidin-4-ol hydrochloride], the “Electrophysiology NR1C + NR2A % block by 10 μM” value in data set [1] came out at 12%. Also, the “Electrophysiology NR1C + NR2B % block by 0.1 μM” value in data set [2] was 89%.

As for `Cc1ccc(CC2(O)CCN(CC3Cc4cc(O)ccc4N3)CC2)cc1` (racemic) [Example 21, (RS)-2-[4-Hydroxy-4-(4-methyl-benzyl)-piperidin-1-ylmethyl]-2,3-dihydro-1H-indol-5-ol], the melting point was 90 to 94 °C.

As usually defined, the IC50 is the concentration at which inhibition is half-maximal. A higher IC50 goes with weaker potency in that assay. In data set [3], `CS(=O)(=O)Nc1ccc2c(c1)CC(CN1CCC(O)(Cc3ccc(Cl)cc3)CC1)O2` (racemic) [Example 22, Hydrochloride] gave an IC50 of 40 nM. `Cc1ccc(CC2(O)CCN(C[C@H]3CCc4cc(O)ccc4[C@@H]3O)CC2)cc1` (racemic) [Example 27, (1RS, 2RS)-1-(1,6-Dihydroxy-1,2,3,4-tetrahydro-naphthalen-2-ylmethyl)-4-(4-methyl-benzyl)-piperidin-4-ol fumarate salt]: the IC50 came to 26 nM in data set [3] and 6000 nM in data set [4].

In the case of `Oc1ccc2c(c1)CC[C@H](CN1CCC(O)(Cc3ccccc3)CC1)[C@H]2O` (racemic) [Example 29, (1RS,2RS)-2-(4-benzyl-4-hydroxy-piperidin-1-yl-methyl)-6-hydroxy-1,2,3,4-tetrahydro-naphthalen-1-ol], the melting point lay in the range of 94 to 98 °C. For the compound `Cc1ccc(CC2(O)CCN(CC3=Cc4ccc(O)cc4CC3)CC2)cc1` [Example 1, 1-(6-Hydroxy-3,4-dihydro-naphthalene-2-ylmethyl)-4-(4-methyl-benzyl)-piperidine-4-ol], the “Electrophysiology NR1C + NR2A % block by 10 μM” value in data set [1] was 65* %. The same compound displayed an IC50 in data set [3] of 40 nM. Moreover, the “Electrophysiology NR1C + NR2B % block by 0.1 μM” value in data set [2] worked out at 72%.

Consider `Cc1ccc(CC2(O)CCN(C[C@@H]3Cc4cc(O)ccc4O3)CC2)cc1.Cl` [Example 13, (S)-1-(5-Hydroxy-2,3-dihydro-benzofuran-2-ylmethyl)-4-(4-methyl-benzyl)-piperidin-4-ol hydrochloride], for which, in data set [1], the “Electrophysiology NR1C + NR2A % block by 10 μM” value is 8%. Moreover, the “Electrophysiology NR1C + NR2B % block by 0.1 μM” value in data set [2] stood at 93%. For `Cl.Oc1ccc2c(c1)C[C@@H](CN1CCC(O)(Cc3ccc(Cl)cc3)CC1)O2` [Example 14, (S)-1-(5-Hydroxy-2,3-dihydro-benzofuran-2-ylmethyl)-4-(4-chloro-benzyl)-piperidin-4-ol hydrochloride], in that order: 9% and 90%. On to `Cc1ccc(CC2(O)CCN(CC3Cc4cc(O)ccc4C3O)CC2)cc1` (stereo not drawn) [Example 16, (1RS,2RS) and (1RS, 2SR)-2-[4-Hydroxy-4-(4-methyl-benzyl)-piperidine-1-ylmethyl]-indan-1,5-diol Fumarate Salt], for which, in data set [1], the “Electrophysiology NR1C + NR2A % block by 10 μM” value is on record as 6%.

Turning to `Cc1ccc(CC2(O)CCN(CC3=Cc4ccc(O)cc4C3)CC2)cc1` [Example 20, 1-(6-Hydroxy-1H-inden-2-ylmethyl)-4-(4-methyl-benzyl)-piperidin-4-ol], the melting point fell in the range of 154 to 157 °C.
